Measurements as given in US8877773B2, “Methods for treating chronic obstructive pulmonary disease” (Indiana University Research and Technology Corporation, priority 2009, dated 2014).
“Also recorded” adds a separate entry of the source.

Legend:
Assay type in all cases: in vivo, rat
[1] = system: Orexin A (ORX-A) producing neurons in the DMH/PeF; assay: c-Fos induction in ORX neurons of 1-AG and d-AG treated rats; conditions: 1-AG infused into DMH/PeF (3.5 nmol/0.5 μl per hour); vs d-AG treated control rats
Description: Methods for perfusion and for verification of cannulae placements in experiment 12 were performed following procedures discussed herein. Briefly, 1-AG or d-AG treated rats received i.v. infusions of either lactate or saline vehicle over 15 min (n=6/group for 4 groups), were immediately tested in the SI test, then anesthetized and perfused with a 4% paraformaldehyde/1.5% sucrose solution and processed for immunohistochemistry 90 min following the onset of the i.v. infusions.
Brain sections from all rats were immunostained with the appropriate primary antibody in a single immunohistochemical run, rather than in batches, with large volume incubations to limit variability in the quality of immunohistochemical staining among brain sections.
Sections were washed in PBS and then incubated in 1% H2O2 in PBS for 20 min. Sections were washed in PBS then PBST then incubated 12-16 h in PBST with primary antibody. The following day, sections were incubated 2 h in the appropriate secondary antibody: biotinylated swine anti-rabbit IgG (c-Fos day 1, and orexin A or MCH day 2; cat no. E0353; DAKO, diluted 1:200). Sections were washed again for 30 min in PBST then incubated 1.5 h in an avidin-biotin-peroxidase complex (cat no. PK-6100, Vector Labs, diluted 1:200). […]

[2] = system: panic-prone (1-AG treated) rats; assay: Sodium lactate (NaLac) challenge in panic-prone rats: radio-telemetry of locomotor and cardiovascular (HR, MAP) responses; conditions: i.p. 30 min prior to NaLac, SB334867/SB408124 30 mg/kg, alprazolam 3 mg/kg, experiments 4 and 6
Description: Telemetry probes (Data Science International, St. Paul Minn.) were surgically implanted into the abdomen of anaesthetize rats to measure locomotor responses. Cardiovascular responses were measured by a femoral arterial line connected to the telemetric probe which contained a pressure transducer (Data Science International, St. Paul Minn.).
(§1) The minipump was then sutured into place subcutaneously at the nape of the neck. The concentration of the solutions was such that 3.5 nmol/[…] per hour of 1-AG or d-AG was infused continuously into the DMH/PeF region for the remainder of the given experiment. In the case of the siRNA experiments specialized T-cannulae were implanted permitting access to a removable 28 g injector to direct siRNA injections to the same location as the 1-AG infusions. Additionally these rats had guide cannulae directed to the opposite DMH/PeF for bilateral infusion of siRNA.
(§2) Rats received intravenous (i.v.) infusions (10 ml over 15 min of either 0.5M NaLac or 0.9% isotonic saline (when applicable)) using a syringe pump at least five days following the initiation of 1-AG or d-AG infusions. Once a stable baseline was achieved, i.v. infusions began and cardiovascular and activity data were recorded for 15 min (similar to clinical NaLac infusions).
Cardiovascular responses (i.e., MAP and HR) were measured by a femoral arterial line connected to a telemetric probe which contained a pressure transducer (Cat. no. C50-PXT, Data Science International (DSI) St. Paul Minn.). […] MAP and HR were recorded continuously in freely moving conscious rats and are expressed as a 20 min time course. The data reported are changes in HR and MAP from the average of the baseline (t−5 to t−1) from each rat. […]
In experiments 4-6, rats were made panic vulnerable with 1-AG. 5 days after 1-AG onset, in a counterbalanced design, rats received intraperitoneal (i.p.) injections of treatment drug or vehicle 30 min prior to i.v. infusions. […] In experiment 5, baseline in an open field (OF) behavior test of anxiety was assessed (n=8) prior to 1-AG infusions. […] Immediately following the NaLac challenge, rats were placed in the OF test. […] In experiment 6,1-AG treated rats received an injection of an alternative ORX1 receptor antagonist (30 mg/kg SB408124 (N-(6,8-Difluoro-2-methyl-4-quinolinyl)-N′-(4-(dimethylamino)phenyl)urea), Tocris, in 0.2 ml/100 g volume DMSO, n=4) or vehicle (0.2 ml/100 g volume DMSO, n=6) 30 min prior to NaLac. In experiment 7, control rats (no 1-AG or NaLac treatment) were assessed in a SI test.
Adult male Sprague-Dawley rats were anesthetized and surgically implanted with telemetrical probes to measure cardiovascular activity prior to and during lactate infusions. After a 3 day recovery, rats were anaesthetized and had osmotic minipumps (previously filled with 1-AG) stereotaxically implanted unilaterally into the DMH. […] 1960, Tocris, in 0.2 ml/100 g volume DMSO, n=12], alprazolam (3 mg/kg, Sigma, in 0.2 ml/100 g volume DMSO, n=6) or vehicle (0.2 ml/100 g volume DMSO, n=11) 30 min prior lactate challenge.

[3] = system: panic-prone (1-AG treated) rats; assay: Sodium lactate (NaLac) challenge in panic-prone (1-AG treated) rats: social interaction (SI) test; conditions: alprazolam 3 mg/kg; for anxiety-like responses (social interaction (SI) duration) after NaLac challenge: i.p. 30 min prior to NaLac, SB334867/SB408124 30 mg/kg, experiments 4 and 6
Source text: as §1, §2
Another SI test was performed 5 days following minipump infusions and immediately following saline or sodium lactate infusions.
In experiment 3, an RNAase free environment was maintained throughout the injection procedure and all injectors, syringes and tubing were exposed to RNaseZAP and rinsed thoroughly with RNA-free water prior to siRNA injections. […] 48 hrs after siORX or siCON treatment, these rats were exposed to saline or NaLac infusions (siCon/Sal n=4, siORX/Sal n=6, siCON/Lac n=5, siORX/Lac n=6) and SI behavioral and cardiovascular responses were recorded, and were then sacrificed by rapid decapitation, following a brief (30 s) exposure to IsoFlurane® 1 hr after the intravenous infusions.
In experiments 4-6, rats were made panic vulnerable with 1-AG. […] In experiment 5, baseline in an open field (OF) behavior test of anxiety was assessed (n=8) prior to 1-AG infusions. […] In experiment 7, control rats (no 1-AG or NaLac treatment) were assessed in a SI test. […]

c-Fos = c-Fos immunoreactive cell counts in brain regions after FG-7142 challenge; conditions: FG-7142 7.5 mg/kg ip after vehicle (veh/FG) or SB334867 30 mg/kg ip (SB/FG); 90 min
Description: Fifteen min after the FG-7142 injection, all rats were tested for anxiety behavior using a 5 min open field test (OFT); 5 min social interaction (SI) test; then a 5 min elevated plus maze (EPM) test. Ninety min following FG-7142 injections, rats were anaesthetized and then the brains were removed and processed for immunohistochemistry as described in detail in subsequent section.
Ninety min following the initiation of treatment, rats were anaesthetised with an overdose of sodium pentobarbital (40 mg, i.p.) then perfused transcardially with 0.05 M phosphate buffered saline (PBS; 250 ml), followed by 0.1 M sodium phosphate buffer (PB; 250 ml) containing 4% paraformaldehyde (PFA) and 3% sucrose. Brains were removed and post-fixed for 24 h in the same fixative, rinsed for 24 h in 0.1 M PB, then placed in cryoprotectant (30% sucrose in 0.1 M PB) for an additional 4-5 days. To maintain a consistent plane for coronal sections, brains were placed in a rat brain matrix (ASI instruments, Model No. RBM-4000C) and cut with a razor blade at the caudal border of the mammillary bodies. Brains were frozen in cooled liquid isopentane made by immersing a plastic vessel containing isopentane into a dewar flask containing liquid nitrogen. Serial coronal sections (30 μm) were cut using a cryostat and were immediately placed in cryoprotectant consisting of 27% ethylene glycol and 16% glycerol in 0.05 M PB to yield six alternate sets of sections. Sections were stored at −20° C. until immunohistochemical processing.
All brain sections were immunostained with the c-Fos primary antibody in a single immunohistochemical run, rather than in batches, with large volume incubations to limit variability in the quality of immunohistochemical staining among brain sections. However, the forebrain was immunostained for c-Fos in one run and the brainstem (i.e., midbrain, pons and medulla) in another. Immunostaining for c-Fos protein was accomplished using an affinity-purified primary antibody directed at c-Fos (rabbit anti-human c-Fos polyclonal affinity-purified antibody, Cat. no. sc-52, Santa Cruz Biotechnology, San Diego, Calif.; diluted 1:10,000). Free-floating sections were washed in 0.1 M PBS for 30 min, then incubated in 1% H2O2 in PBS for 20 min. Sections were then washed 10 min in PBS and 20 min in PBS with 0.3% Triton X-100 (PBST). Sections were then incubated 12-16 h in PBST with primary antibody solution at room temperature. After a 30 min wash in PBST, sections were incubated for 2 hr in biotinylated goat anti-rabbit IgG (Cat no. BA-1000, Vector Laboratories, Burlinghame, Calif.; diluted 1:500). Sections were washed again for 30 min in PBST then incubated 1.5 hr in an avidin-biotin-peroxidase complex provided in a standard Vector Elite kit (Cat no. PK-6100, Vector Laboratories, diluted 1:200). The peroxidase substrate for the chromogen reaction was Vector SG, which was prepared as recommended by the manufacturer (Cat. no. SK-4700, Vector Laboratories). The substrate reaction was run for 20 min for the forebrain. All sections were mounted on clean glass slides, dried overnight, dehydrated and mounted with coverslips using DPX mounting medium (BDH Laboratory Supplies, Poole, UK). All washes and incubations were done at room temperature in 12-well polystyrene plates with low frequency shaking on an orbital shaker.
Selection of anatomical levels for analysis of c-Fos-immunostained cells was conducted with reference to illustrations from a rat brain stereotaxic atlas (Paxinos and Watson, 1997). Selection of anatomical levels was also done in reference to major anatomical landmarks including white matter tracts and the ventricular systems.

FG-7142 treated rats = assay: FG-7142-induced anxiety: open field, social interaction and elevated plus maze tests; conditions: Wistar rats; FG-7142 7.5 mg/kg ip, with or without SB334867 30 mg/kg ip
Description: All experiments were conducted on adult male Wistar rats (250-300 g) purchased from Harlan Laboratories (Indianapolis, Ind. USA) and were housed individually in plastic cages under standard environmental conditions (22° C.; 12/12 light/dark cycle; lights on at 7:00 A.M.) for 7-10 days prior to the surgical manipulations. Food and water were provided ad libitum.
The open-field arena covered an area of 90 cm×90 cm, with 40 cm high walls. The open-field arena was divided into a 6×6 grid of equally-sized squares using black tape (36 total squares) with 4 squares forming the centre; 12 squares forming the middle perimeter; and 20 squares forming the outer perimeter. The test started by placing a rat in the centre. The behavior of each rat in the open-field arena was recorded on video and scored afterwards by an observer blind to the experimental treatment of each rat. Time spent in each region of the open-field was recorded. In addition, locomotor activity was assessed by counting the number of times the rat's entire body (excluding tail) completely crossed into another square.
Following the OFT, the experimental rat was placed in an open field (0.9 m long×0.9 m wide with walls 0.3 m high) with an untreated novel partner rat. A video camera was fixed above the box, and all behavioral tests were videotaped. During the 5 min test the total amount of time the treated rat initiates interaction with the partner rat is recorded (sniffing, grooming etc.) as described previously. Videotaped sessions were scored at a later time by a SDF (blind to treatments) and a decrease in total interaction time was taken as an increase in “anxiety” like behavior.
Following the SI test, rats were place in the center area of the EPM where the two arms intersect. Unlike the SI test, the EPM measures many relevant anxiety related behaviors such as: no. of poke and full entries into and duration spent in closed versus open arm. […] Activity is measured using […] state of the art photobeams (16× beams and 16 Y beams) to provide the highest resolution system available (Automated EPM, Hamilton Kinder Scientific, San diego, CA).

C=CC[C@H](N)C(=O)O [1-AG, 1-allylglycine]
c-Fos immunoreactive ORX-A neurons in the DMH/PeF [1]: increased

Cc1nnc2n1-c1ccc(Cl)cc1C(c1ccccc1)=NC2 [alprazolam]
NaLac induced increases in general locomotor activity [2]: attenuated
NaLac induced increases in heart rate (HR) [2]: attenuated
NaLac induced increases in mean arterial blood pressure (MAP) [2]: attenuated
anxiety-like responses (social interaction (SI) duration) after NaLac challenge [3]: attenuated
all lactate induced panic-like responses (SI, Activity, HR, MAP) ([3]; i.p. 30 min prior to lactate, SB334867 30 mg/kg): attenuated; also recorded: anti-panic effects

CNC(=O)c1cc2c(cn1)[nH]c1ccccc12 [FG-7142]
Mean number of c-Fos immunoreactive cells, Amygdala (−2.56 mm bregma) BLA (c-Fos): 9 ± 4
Mean number of c-Fos immunoreactive cells, Amygdala (−2.56 mm bregma) LA (c-Fos): 10 ± 4
Mean number of c-Fos immunoreactive cells, Amygdala (−2.56 mm bregma) MeA (c-Fos): 85 ± 18
Mean number of c-Fos immunoreactive cells, DRN (−7.80 mm bregma) (c-Fos): 1 ± 0
Mean number of c-Fos immunoreactive cells, ILC (+2.60 mm bregma) (c-Fos): 12 ± 6
Mean number of c-Fos immunoreactive cells, IPBN (−9.30 mm bregma) (c-Fos): 9 ± 3
Mean number of c-Fos immunoreactive cells, LC (−10.04 mm bregma) (c-Fos): 48 ± 5
Mean number of c-Fos immunoreactive cells, LSI (+0.20 mm bregma) (c-Fos): 12 ± 4
Mean number of c-Fos immunoreactive cells, PRL (+2.60 mm bregma) (c-Fos): 3 ± 1
Mean number of c-Fos immunoreactive cells, PeF (−3.14 mm bregma) (c-Fos): 67 ± 23
Mean number of c-Fos immunoreactive cells, mPBN (−9.30 mm bregma) (c-Fos): 3 ± 1
time in open arms of elevated plus maze (FG-7142 treated rats): low open arm times

Cc1cc(NC(=O)Nc2ccc(N(C)C)cc2)c2cc(F)cc(F)c2n1 [SB408124, N-(6,8-Difluoro-2-methyl-4-quinolinyl)-N′-(4-(dimethylamino)phenyl)urea]
NaLac induced increases in general locomotor activity [2]: did attenuate; also recorded: attenuated
NaLac induced increases in heart rate (HR) [2]: did attenuate; also recorded: attenuated
NaLac induced increases in mean arterial blood pressure (MAP) [2]: did not significantly alter
anxiety-like responses (social interaction (SI) duration) after NaLac challenge [3]: did not significantly alter
